Patent US7476508B2, “Method of screening agent for improving memory and learning ability” (Astellas Pharma Inc., priority 2003, dated 2009)

What was measured:
hippocampal slices = details: non-patent references 3, 6 and 7; cited from earlier work
[1] = system: primary cultured neurons derived from rat cerebral cortex; assay: Calcium influx in primary cultured neurons derived from rat cerebral cortex; type: cell-based
Source text: (§1) A pregnant rat was anesthetized with diethyl ether, and the chest (heart) was dissected to sacrifice the rat by exsanguination. An abdomen was opened, and the uterus was dissected. After a fetus was sterilized with rubbing alcohol in a clean bench, the whole brain was dissected and placed in a petri dish containing a culture medium for neurons (SUMILON; Sumitomo Bakelite). The cerebral cortex and the hippocampus were dissected with fine forceps under a stereomicroscope, and transferred to 50-mL tubes independently. Each tube was allowed to stand, to precipitate each tissue, and each supernatant was removed by suction. A solution for cell dissocition [phosphate buffered saline (PBS) supplemented with 1% papain, 150 U/mL DNase I, 0.02% L-cysteine, 0.02% bovine serum albumin (BSA), and 0.5% glucose] was added to each tube, incubated at 37° C. for 15 minutes, and centrifuged (1000 rpm, 4° C., 5 minutes). Each supernatant was removed by suction, and 10 mL of a serum-free medium was added to each tube. The whole in each tube was dispersed by pipetting several times, and cell debris was removed through a filter to obtain each cell suspension.
This example was carried out in accordance with known methods (Yoshihisa Kudo ed., Jikken Igaku, Supplement “Saibo-nai karushiumu jikken purotokoru”, 1996, Youdo-sha), except for the following procedures.
A time course of fluorescence emitted from cells was measured in accordance with the method described in Example 6, except that the primary cultured neurons (4×10^4 cells) derived from the rat brain (cerebral cortex), obtained in Example 13, were cultured for a week and used, and that the final concentration of PS was 10 μmol/L or 50 μmol/L. As a control, a physiological saline without PS was used.
Any one of compounds A, B, C, and D, and PS was applied to primary cultured neurons derived from the rat cerebral cortex obtained in Example 13, and a calcium influx into the neurons was measured. More particularly, the measurement was carried out in accordance with the method described in Example 14, except that the number of cells was 1×10^5 cells.

[2] = system: primary cultured neurons derived from the rat hippocampus; assay: Spontaneous excitatory postsynaptic currents (sEPSCs) by whole-cell patch-clamp in primary cultured neurons; type: cell-based; details: voltage-clamped at −60 mV
Source text: as §1
To confirm the effects of the activating agents on improving the memory, improving learning ability, and/or antidementia, any one of the compounds A, B, C, and D, which were found in Example 16 and can activate the polypeptide consisting of the amino acid sequence of SEQ ID NO: 2, was applied to the neurons to examine an activity of enhancing neurotransmission in the neurons. More particularly, effects of compounds A, B, C, and D on spontaneous excitatory postsynaptic currents (sEPSCs) in primary cultured neurons derived from the rat hippocampus, obtained in Example 13, were examined by a whole-cell patch-clamp method. The sEPSCs is a change of current generated in the neurons, when synaptic vesicles located at the terminus of another cell spontaneously exocytosis a neurotransmitter, and the former cell receives the released neurotransmitter. Therefore, neurotransmission between the neurons can be measured by measuring the sEPSCs (Journal of Neurophysiology, 76, 3159-3168, 1996; The Journal of Neuroscience, 19, 5311-5321, 1999). Further, it is known that the neurotransmission is suppressed by inhibiting the sEPSCs (Journal of Neuroscience Research, 72, 116-124, 2003).
More particularly, the cells (approximately 1×10^5 cells per dish) obtained in Example 13 were plated in a culture dish having a diameter of 35 mm, and cultured for 1 to 5 weeks. As a culture medium, a culture medium for the neurons (SUMILON; Sumitomo Bakelite) was used. Other procedures for cultivation were carried out in accordance with known methods (Methods in Neuroscience vol. 2, Cell culture, P. Michael Conn ed, Academic Press, Inc. 1990). The cell was voltage-clamped at −60 mV by a whole-cell voltage-clamp method, and a whole-cell current generated when PS or each compound was applied was measured (Yasunobu Okada ed., “Shin pacchi kuranpu jikken gijyutsu hou”, Yoshioka shoten, 2001). A solution containing 140 mmol/L NaCl, 5.4 mmol/L KCl, 2 mmol/L CaCl2, 0.8 mmol/L MgCl2, 15 mmol/L glucose, 10 mmol/L HEPES-Na (pH=7.4), 20 μmol/L bicuculline, and 1 μmol/L strychnine was used as an extracellular solution. A solution containing 100 mmol/L potassium gluconate, 10 mmol/L EGTA, 5 mmol/L MgCl2, 2 mmol/L K2ATP, 0.3 mmol/L Na2GTP, and 40 mmol/L HEPES-K (pH=7.25) was used as an intracellular solution.

[3] = molecular target: T1, polypeptide consisting of the amino acid sequence of SEQ ID NO: 2 (Homo sapiens, UniProt Q9HCF6, R1695Q); assay: Whole-cell voltage-clamp detection of channel activity in transfected HEK293 cells; type: cell-based; details: n=10
T1 construct: expressed in transfected cells
Source text: (§2) To detect a channel activity of the polypeptide consisting of the amino acid sequence of SEQ ID NO: 2, animal cells were transfected with the expression vector pcDNA3.1-MLSN2 obtained in Example 1 to express the polypeptide. The expression vector pcDNA3.1-MLSN2 obtained in Example 1 and reagents for transfection (LIPOFECTAMINE or LIPOFECTAMINE2000; Invitrogen) were used to transform human embryonic kidney derived HEK293 cells (ATCC No.: CRL-1573) and induce the expression of the polypeptide consisting of the amino acid sequence of SEQ ID NO: 2. The cells transfected with LIPOFECTAMINE were used in Examples 4 and 5, and the cells transfected with LIPOFECTAMINE2000 were used in Examples 6, 7, and 16.
Each cell obtained in Example 3 was voltage-clamped by a whole-cell voltage-clamp method, and a whole-cell current generated when PS was applied was measured. […]
(§3) When PS (100 μmol/L) was extracellularly applied to the cell transfected with plasmid pcDNA3.1-MLSN2 at a holding potential of −40 mV, an inward current (−5.8±0.9, n=10) was measured. After washing the cell, PS was applid thereto at a holding potential of +40 mV, a large outward current (108.9±19.3, n=10) was measured. A current-voltage relationship was measured using a voltage ramp during the response, an outward rectifier was observed.

[4] = molecular target: T1, polypeptide consisting of the amino acid sequence of SEQ ID NO: 2; assay: Calcium influx with calcium-sensitive fluorescent reagent (Fluo3-AM, FLIPR) in HEK293 transformants; type: cell-based; details: for EC50: method of Example 6, read-out: EC50 of activation (calcium influx)
Source text: as §2
(§4) The transformants (4×10^4 cells) obtained in Example 3 were incubated at 37° C. for an hour in the presence of a calcium-sensitive fluorescent reagent (Fluo3-AM; DOJINDO), and the reagent was incorporated into the cells. The cells were washed with a physiological saline to remove the reagent not incorporated. A physiological saline supplemented with PS (final concentration=10 μmol/L) was added to the treated cells, and a time course of fluorescence emitted from the cells was measured using an automated fluorescence detector (FLIPR; Molecular Device). As controls, the same procedures were repeated, except that HEK293 cells transfected with pcDNA3.1(+) (i.e., control cells not expressing the polypeptide of SEQ ID NO: 2) were used, or except that a physiological saline without PS was used.
A screening of compounds (activating agents) capable of activating the polypeptide consisting of the amino acid sequence of SEQ ID NO: 2 was carried out. As an index of activation, a calcium influx into cells was detected by using a calcium-sensitive fluorescent reagent, more particularly, in accordance to the method described in Example 6.

[5] = system: HEK cells not expressing the polypeptide of SEQ ID NO: 2; assay: Calcium influx (Fluo3-AM, FLIPR) in control HEK293 cells; type: cell-based, human; details: for increase in fluorescent intensity: negative control cells
Procedure: as §4
Various compounds were examined, and, as a compound showing an increase in fluorescent intensity, N-[3-(2,6-dichlorophenyl)-5-methylisoxazole-4-yl]-N′-ethyl-N-methyl-N′-phenylurea (code no. SPB 00071; MAYBRIDGE), 3-(2,6-difluorophenyl)-4-(piperidine-1-ylmethyl)-1,3-thiazole-2(3H)-thion (code no. MS 1368; MERLIN), 3-(2,6-difluorophenyl)-4-(pyrrolidine-1-ylmethyl)-1,3-thiazole-2(3H)-thion (code no. MS 1370; MERLIN), and N-(2-acetyl-3-thienyl)-2-[(2-chloro-6-fluorobenzyl)sulfanil]acetamide (code no. GK 00678; Ryan Scientific) (hereinafter referred to as compounds A, B, C, and D, respectively) were found.

[6] = system: control cell not expressing the polypeptide of SEQ ID NO: 2; assay: Whole-cell voltage-clamp in control cell transfected with no expression vector; type: cell-based, human; details: same conditions as the transfected cell
Procedure: Each cell obtained in Example 3 was voltage-clamped by a whole-cell voltage-clamp method, and a whole-cell current generated when PS was applied was measured. A solution containing 149 mmol/L NaCl, 5 mmol/L KCl, 2 mmol/L CaCl2, 0.8 mmol/L MgCl2, and 10 mmol/L HEPES-Na (pH=7.4) was used as an extracellular solution, and a solution containing 147 mmol/L CsCl, 4.5 mmol/L EGTA, and 9 mmol/L HEPES-Cs(pH=7.2) was used as an intracellular solution.
as §3

aged rats = details: non-patent reference 5; cited from earlier work
[7] = final concentration 10 μmol/L, 1×10^5 cells

T1 sequence (Q9HCF6 154-1707 isoform Q9HCF6-2 R1670Q): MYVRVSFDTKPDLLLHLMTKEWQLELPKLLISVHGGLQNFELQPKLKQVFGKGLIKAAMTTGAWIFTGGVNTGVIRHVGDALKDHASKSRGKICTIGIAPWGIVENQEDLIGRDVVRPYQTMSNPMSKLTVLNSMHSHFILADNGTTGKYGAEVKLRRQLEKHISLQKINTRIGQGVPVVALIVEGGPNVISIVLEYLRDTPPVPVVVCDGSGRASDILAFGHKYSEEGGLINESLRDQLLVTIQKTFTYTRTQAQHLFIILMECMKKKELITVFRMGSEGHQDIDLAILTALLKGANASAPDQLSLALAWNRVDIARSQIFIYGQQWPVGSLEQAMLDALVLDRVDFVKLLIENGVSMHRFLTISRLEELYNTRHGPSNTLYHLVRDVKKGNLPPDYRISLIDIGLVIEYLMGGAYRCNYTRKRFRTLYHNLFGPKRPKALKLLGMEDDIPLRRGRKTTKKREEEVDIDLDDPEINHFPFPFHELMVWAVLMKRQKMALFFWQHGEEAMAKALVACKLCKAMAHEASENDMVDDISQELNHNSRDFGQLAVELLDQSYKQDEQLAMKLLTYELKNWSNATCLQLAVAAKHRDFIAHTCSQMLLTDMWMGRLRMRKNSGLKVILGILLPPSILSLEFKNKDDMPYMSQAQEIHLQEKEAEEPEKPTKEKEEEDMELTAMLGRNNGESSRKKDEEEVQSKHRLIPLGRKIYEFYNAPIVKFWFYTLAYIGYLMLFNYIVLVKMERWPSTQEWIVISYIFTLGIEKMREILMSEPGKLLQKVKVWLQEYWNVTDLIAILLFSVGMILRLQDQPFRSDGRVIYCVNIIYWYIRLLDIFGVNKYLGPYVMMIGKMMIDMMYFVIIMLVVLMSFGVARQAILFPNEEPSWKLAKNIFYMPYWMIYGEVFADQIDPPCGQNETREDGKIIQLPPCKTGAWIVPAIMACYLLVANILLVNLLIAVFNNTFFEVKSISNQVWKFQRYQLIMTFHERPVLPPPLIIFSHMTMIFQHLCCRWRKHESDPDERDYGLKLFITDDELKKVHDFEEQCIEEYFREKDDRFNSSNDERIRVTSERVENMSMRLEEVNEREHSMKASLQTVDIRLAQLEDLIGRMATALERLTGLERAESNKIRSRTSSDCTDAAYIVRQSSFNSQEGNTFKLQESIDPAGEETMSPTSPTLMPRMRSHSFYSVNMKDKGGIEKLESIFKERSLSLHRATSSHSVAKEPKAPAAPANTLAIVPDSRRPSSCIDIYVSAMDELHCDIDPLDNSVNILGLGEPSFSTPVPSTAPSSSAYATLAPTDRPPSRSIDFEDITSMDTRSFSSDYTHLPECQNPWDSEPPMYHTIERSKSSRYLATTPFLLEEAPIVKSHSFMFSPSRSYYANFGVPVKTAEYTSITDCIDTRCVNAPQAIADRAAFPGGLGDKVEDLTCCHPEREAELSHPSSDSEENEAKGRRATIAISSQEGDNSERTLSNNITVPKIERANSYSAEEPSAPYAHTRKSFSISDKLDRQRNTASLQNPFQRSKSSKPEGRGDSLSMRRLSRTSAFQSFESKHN

Compound | EC50 [4] [µM] | neurotransmission (acetylcholine release, hippocampal spike frequency, LTP) (hippocampal slices) | increase in fluorescent intensity (calcium influx) ([1]; 10 μmol/L, 4×10^4 cells cultured for a week) | increase in fluorescent intensity (calcium influx) ([1]; 50 μmol/L, 4×10^4 cells cultured for a week) | increase in fluorescent intensity (calcium influx) [1, 7] | enhancement of sEPSCs ([2]; 10 μmol/L) | inward current ([3]; PS 100 μmol/L applied extracellularly, holding potential −40 mV) | outward current ([3]; PS applied after washing, holding potential +40 mV) | increase in fluorescent intensity (calcium influx) ([4]; final concentration 10 μmol/L, immediately after addition) | fluorescent intensity (calcium influx) ([5]; PS 10 μmol/L, HEK293 cells transfected with pcDNA3.1(+)) | whole-cell currents on PS application [6] | memory and learning ability (aged rats) | enhancement of sEPSCs ([2]; 1 μmol/L) | increase in fluorescent intensity [5]
Pregnenolone sulfate [PS, reference compound] | – | enhancement of neurotransmission | an increase in fluorescent intensity was detected | an increase in fluorescent intensity was detected | an increase in fluorescent intensity was detected | the enhancement of sEPSCs was similarly detected | −5.8±0.9 | 108.9±19.3 | approximately 10,000 counts | approximately 0 count | such currents were not observed | the memory and learning ability were improved | – | –
Fc1cccc(F)c1-n1c(CN2CCCCC2)csc1=S [compound B, 3-(2,6-difluorophenyl)-4-(piperidine-1-ylmethyl)-1,3-thiazole-2(3H)-thion] | 6.8 | – | – | – | an increase in fluorescent intensity was detected | the enhancement of sEPSCs was detected | – | – | – | – | – | – | – | such an increase in fluorescent intensity was not detected
CCN(C(=O)N(C)c1c(-c2c(Cl)cccc2Cl)noc1C)c1ccccc1 [compound A, N-[3-(2,6-dichlorophenyl)-5-methylisoxazole-4-yl]-N′-ethyl-N-methyl-N′-phenylurea] | 9.8 | – | – | – | an increase in fluorescent intensity was detected | the enhancement of sEPSCs was detected | – | – | – | – | – | – | – | such an increase in fluorescent intensity was not detected

Further lines, with some results ahead:

EC50 [4] [µM] | Compound | neurotransmission (acetylcholine release, hippocampal spike frequency, LTP) (hippocampal slices) | increase in fluorescent intensity (calcium influx) ([1]; 10 μmol/L, 4×10^4 cells cultured for a week) | increase in fluorescent intensity (calcium influx) ([1]; 50 μmol/L, 4×10^4 cells cultured for a week) | increase in fluorescent intensity (calcium influx) [1, 7] | enhancement of sEPSCs ([2]; 10 μmol/L) | inward current ([3]; PS 100 μmol/L applied extracellularly, holding potential −40 mV) | outward current ([3]; PS applied after washing, holding potential +40 mV) | increase in fluorescent intensity (calcium influx) ([4]; final concentration 10 μmol/L, immediately after addition) | fluorescent intensity (calcium influx) ([5]; PS 10 μmol/L, HEK293 cells transfected with pcDNA3.1(+)) | whole-cell currents on PS application [6] | memory and learning ability (aged rats) | enhancement of sEPSCs ([2]; 1 μmol/L) | increase in fluorescent intensity [5]
3.5 | CC(=O)c1sccc1NC(=O)CSCc1c(F)cccc1Cl [compound D, N-(2-acetyl-3-thienyl)-2-[(2-chloro-6-fluorobenzyl)sulfanil]acetamide] | – | – | – | an increase in fluorescent intensity was detected | – | – | – | – | – | – | – | the enhancement of sEPSCs was detected | such an increase in fluorescent intensity was not detected
1.9 | Fc1cccc(F)c1-n1c(CN2CCCC2)csc1=S [compound C, 3-(2,6-difluorophenyl)-4-(pyrrolidine-1-ylmethyl)-1,3-thiazole-2(3H)-thion] | – | – | – | an increase in fluorescent intensity was detected | the enhancement of sEPSCs was detected | – | – | – | – | – | – | – | such an increase in fluorescent intensity was not detected
